Assay results from patent US20240415819A1, “MACROCYCLIC COMPOUNDS AS PROTEASOME SUBUNIT BETA TYPE-5 INHIBITORS” (Lead Discovery Center GmbH, priority 2021, published 2024).

system: A549 (human lung carcinoma cell line); test: Glo assay of A549 cells (Table 3; ProteasomeGlo plating scheme); format: cell-based; settings: Homo sapiens; A549 cells; read-out: PGLo A549
Excerpt: Inhibition is indicated as IC50 [nM] (“-”=not measured). […] • Chymotrypsin-Like Cell-Based Proteasome-GloTM Assay (Promega; […]) • Cell culture 384-well plates (Greiner BioOne; 781080) • Dispensing cassette, MultiDrop Standard tube dispensing cassette (Thermo Scientific; 24072670) • DPBS (Pan BioTech; P04-36500) • Cell culture 384-well plates (Greiner BioOne; 781080) • CPD source plate: diamond-shape plate (Labcyte; LP-0200) • Intermediate plate (Labcyte; P-05525) [table] • a. Remove the plates with cells from the incubator. • b. Take all the plates including the compound plate, intermediate plate and Staurosporine plate to the ECHO. • c. Click on “Open” in the ECHO software and select the protocol “QLI5_25ul_30 uM-Grenier”. • d. Follow the on-screen prompts and instructions once you click “Start” to insert the compound plate, intermediate plate and destination plates. • e. Change the final number of destination plates on the program. • f. Follow the on-screen prompts and instructions once you click “Start” to load the Staurosporine and destination plates. • g. Once all the compounds, DMSO and Staurosporine have been transferred, place the destination plates in a wet tissue box. • h. Place the destination plates back into the incubator and incubate at 37° C., 5% CO2 for 105 minutes. • i. Re-seal all the compound+Stauro diamond and intermediate plates and store in the dark. Chymotrypsin like ProteasomeGlo Assay • 1. Thaw the components of the ProteasomeGlo assay at room temperature including the ProteasomeGlo Buffer, the lyophilized Luciferin Detection Reagent and the Suc-LLVY-Glo Substrate. • 2. Reconstitute the Luciferin Detection Reagent in the amber coloured bottle by adding 50 ml of the ProteasomeGlo Buffer. • 3. Vortex the Suc-LLVY-Glo Substrate briefly to reconstitute the Substrate well. • 4. Spin down the Substrate and add 250 μl of the Substrate to the reconstituted Luciferin Detection Reagent from step 2. • 5. Briefly vortex the amber bottle with the mix to prepare a homogenous solution. • 6. Place the mix prepared in step 5 to sit at room temperature for 60 minutes. • 7. After 60 minutes, pipette 25 μl of the mix from step 5 into all wells with the cells. • 8. Shake the plates for 2-5 minutes to ensure the complete mixing of the ProteasomeGlo reagent with the cells. • 9. Leave the plates in the dark for 10-15 minutes. • 10. Measure the luminescence read-out using the Viktor and the protocol “Luminescence_384Well_0.2 sec”. (Note: The Protoeasome-GloTM Reagent (combined Proteasome-GloTM Substrate, Proteasome-GloTM Buffer and Luciferin Detection Reagent) can be stored at 4° C. or -20° C. for 1 month with minimal loss of activity.)

| SMILES | IC50 |
| --- | --- |
| Cc1ccc2cc1CNC(=O)[C@H](CCc1ccccc1)NC(=O)[C@@H](NC(=O)CCOCCCC1CCCC1)CC(=O)N1CCCC(CCO2)C1 (stereo partly drawn) [Compound 620, 3-(3-cyclopentylpropoxy)-N-((9S,12S)-5^4-methyl-8,11,14-trioxo-9-phenethyl-4-oxa-7,10-diaza-1(3,1)-piperidina-5(1,3)-benzenacyclotetradecaphane-12-yl)propanamide] | < 100 nM |

system: HT-29 cells; test: CellTiter-Glo luminescent cell viability assay with HT-29 cells (72h incubation); format: cell-based, human; settings: Homo sapiens, HT-29, HT29 cells, read-out: CTG HT29
Protocol: Cell Titer Glo Viability Assay with HT-29 Cells (72h Incubation) The CellTiter-Glo Luminescent Cell Viability Assay (Promega) is a homogeneous method of determining the number of viable cells in culture. It is based on quantification of ATP, indicating the presence of metabolically active cells. On day 1 400 HT-29 cells per well are seeded in white 384well plates (Greiner, #781080) in 25 μl cell culture medium (DMEM (PAN-Biotech #P04-03590)+10% FCS+glutamine). After incubation for 24 h at 37° C./5% CO2 compounds or DMSO are added at different concentrations by Echo Liquid Handling Technology. Cells are further incubated in humidified chambers for 72 h at 37° C. and 5% CO2. Cells treated with the compound vehicle DMSO are used as positive controls and cells treated with 10 μM Staurosporine serve as negative controls. At day 5-72h after compound addition—the CellTiter Glo Reagent is prepared according to the instructions of the kit (Promega Inc.): Reagent is mixed 1:1 with cell culture medium. Thereon, mixture and assay plates are equilibrated at room temperature for 20 min. Equal volumes of the reagent-medium-mixture is added to the volume of culture medium present in each well. The plates are mixed at […] for 2 minutes on an orbital shaker. The microplates are then incubated at room temperature for 10 minutes for stabilization of the luminescent signal. Following incubation the luminescence is recorded on a Victor microplate reader (Perkin Elmer) using a 200 ms integration time. The data is then analyzed with Excel using the XLFIT Plugin (dose response Fit 205) for IC50-determination. As quality control the Z′-factor is calculated from 16 positive and negative control values. […] Inhibition is indicated as IC50 [nM] (“-”=not measured).

| SMILES | IC50 |
| --- | --- |
| Cc1ccc2cc1CNC(=O)[C@H](CCc1ccccc1)NC(=O)CCCCCC(=O)N1CCCC(CCO2)C1 (stereo partly drawn) [Compound 22, (9S)-5^4-methyl-9-phenethyl-4-oxa-7,10-diaza-1(3,1)-piperidina-5(1,3)-benzenacycloheptadecaphane-8,11,17-trione] | 1000 to 5000 nM |
| Cc1ccc2cc1CNC(=O)[C@H](CCc1ccccc1)NC(=O)[C@@H](NC(=O)Cc1ccc(N)cc1)CC(=O)N1CCC[C@@H](CCO2)C1 [Compound 173, 2-(4-aminophenyl)-N-((13S,9S,12S)-5^4-methyl-8,11,14-trioxo-9-phenethyl-4-oxa-7,10-diaza-1(3,1)-piperidina-5(1,3)-benzenacyclotetradecaphane-12-yl)acetamide] | 100 to 500 nM |
| CC(=O)N[C@H]1CC(=O)N2CCCC(CCOc3ccc(C)c(c3)CNC(=O)C(CCc3ccccc3)NC1=O)C2 (stereo partly drawn) [Compound 550, N-((12S)-5^4-methyl-8,11,14-trioxo-9-phenethyl-4-oxa-7,10-diaza-1(3,1)-piperidina-5(1,3)-benzenacyclotetradecaphane-12-yl)acetamide] | < 100 nM |
| Cc1ccc2cc1CNC(=O)[C@H](CCc1ccccc1)NC(=O)[C@@H](NC(=O)Cc1cccc(Cl)c1)CC(=O)N1CCCC(CCO2)C1 (stereo partly drawn) [Compound 61, 2-(3-chlorophenyl)-N-((9S,12S)-54-methyl-8,11,14-trioxo-9-phenethyl-4-oxa-7,10-diaza-1(3,1)-piperidina-5(1,3)-benzenacyclotetradecaphane-12-yl)acetamide] | < 100 nM |
| CC(=O)N[C@H]1CC(=O)N2CC3CC(Oc4ccc(C)c(c4)CNC(=O)[C@H](CCc4ccccc4)NC1=O)C3C2 (stereo partly drawn) [Compound 298, N-(3^4-methyl-6,9,12-trioxo-7-phenethyl-2-oxa-13,5,8-triaza-1(6,3)-bicyclo[3.2.0]heptana-3(1,3)-benzenacyclododecaphane-10-yl)acetamide] | 100 to 500 nM |
| CC(=O)N[C@H]1CC(=O)N2CCC(C2)Oc2ccc(C)c(c2)CNC(=O)[C@H](CCc2ccccc2)NC1=O (stereo partly drawn) [Compound 261, N-((7S,10S)-3^4-methyl-6,9,12-trioxo-7-phenethyl-2-oxa-5,8-diaza-1(3,1)-pyrrolidina-3(1,3)-benzenacyclododecaphane-10-yl)acetamide] | 100 to 500 nM |
| CC(=O)N[C@H]1CC(=O)N2CCCC(CCOc3ccc(C)c(c3)CNC(=O)C(c3cnn(CCS(=O)(=O)O)c3)NC1=O)C2 (stereo partly drawn) [Compound 572, N-(4-((12S)-12-acetamido-5^4-methyl-8,11,14-trioxo-4-oxa-7,10-diaza-1(3,1)-piperidina-5(1,3)-benzenacyclotetradecaphane-9-yl)-1H-pyrazol-1-yl)ethane-1-sulfonic acid] | 100 to 500 nM |
| CC(=O)N[C@H]1CC(=O)NCCOc2ccc(C)c(c2)CNC(=O)[C@H](CCc2ccccc2)NC1=O [Compound 252, N-((8S,11S)-1^4-methyl-6,9,12-trioxo-11-phenethyl-2-oxa-5,10,13-triaza-1(1,3)-benzenacyclotetradecaphane-8-yl)acetamide] | 100 to 500 nM |
| Cc1ccc2cc1CNC(=O)[C@H](CCc1ccccc1)NC(=O)[C@@H](NS(=O)(=O)CCCc1ccccc1)CC(=O)N1CCCC(CCO2)C1 (stereo partly drawn) [Compound 44, N-((9S,12S)-5^4-methyl-8,11,14-trioxo-9-phenethyl-4-oxa-7,10-diaza-1(3,1)-piperidina-5(1,3)-benzenacyclotetradecaphane-12-yl)-3-phenyloropane-1-sulfonamide] | < 100 nM |
| Cc1ccc2cc1CNC(=O)C(CCc1ccccc1)NC(=O)CCC(=O)N1CCCC(CCO2)C1 (stereo not drawn) [Compound 495, 5^4-methyl-9-phenethyl-4-oxa-7,10-diaza-1(3,1)-piperidina-5(1,3)-benzenacyclotetradecaphane-8,11,14-trione] | 100 to 500 nM |
| CC(=O)N[C@H]1CC(=O)N2CCC(CC2)Oc2ccc(C)c(c2)CNC(=O)[C@H](CCc2ccccc2)NC1=O [Compound 254, N-((7S,10S)-3^4-methyl-6,9,12-trioxo-7-phenethyl-2-oxa-5,8-diaza-1(4,1)-piperidina-3(1,3)-benzenacyclododecaphane-10-yl)acetamide] | 100 to 500 nM |
| CCC1(C(=O)N[C@H]2CC(=O)N3CCCC(CCOc4ccc(C)c(c4)CNC(=O)[C@H](CCc4ccccc4)NC2=O)C3)CCNCC1 (stereo partly drawn) [Compound 151, 4-ethyl-N-((9S,12S)-5^4-methyl-8,11,14-trioxo-9-phenethyl-4-oxa-7,10-diaza-1(3,1)-piperidina-5(1,3)-benzenacyclotetradecaphane-12-yl)piperidine-4-carboxamide] | < 100 nM |
| Cc1cccc(CC(=O)N[C@H]2CC(=O)N3CCCC(CCOc4ccc(C)c(c4)CNC(=O)[C@H](CCc4ccccc4)NC2=O)C3)c1 (stereo partly drawn) [Compound 62, N-((9S,12S)-5^4-methyl-8,11,14-trioxo-9-phenethyl-4-oxa-7,10-diaza-1(3,1)-piperidina-5(1,3)-benzenacyclotetradecaphane-12-yl)-2-(m-tolyl)acetamide] | < 100 nM |

molecular target: T1, β5 subunit of the human constitutive proteasome (CPS) (Homo sapiens, UniProt P28074); test: β5 inhibition assay, human constitutive proteasome (Suc-LLVY-AMC); format: biochemical; settings: IC50 class, Suc-LLVY-AMC substrate
T1 construct: purchased Boston Biochem E-360
Protocol: The enzymatic activity of the β5 subunit of the human constitutive proteasome (CPS) is analyzed. In another assay, which differs from the assay of the human constitutive proteasome only in using the human immunoproteasome (IPS) the enzymatic activity of the β5 subunit of the human immunoproteasome (IPS) is analyzed. […] Inhibition is indicated as IC50 [nM] (“-”=not measured).

| SMILES | IC50 |
| --- | --- |
| Cc1ccc2cc1CNC(=O)[C@H](CCc1ccccc1)NC(=O)[C@@H](NC(=O)CCNC(=O)C1CCC3(CCOCC3)CC1)CC(=O)N1CCCC(CCO2)C1 (stereo partly drawn) [Compound 576] | < 100 nM |
| Cc1ccc2cc1CNC(=O)[C@H](CCc1ccccc1)NC(=O)[C@@H](NC(=O)CCOCCCC1CCCC1)CC(=O)N1CCCC(CCO2)C1 (stereo partly drawn) [Compound 620, 3-(3-cyclopentylpropoxy)-N-((9S,12S)-5^4-methyl-8,11,14-trioxo-9-phenethyl-4-oxa-7,10-diaza-1(3,1)-piperidina-5(1,3)-benzenacyclotetradecaphane-12-yl)propanamide] | < 100 nM |

molecular target: T2, β5 subunit of the human immunoproteasome (IPS) (Homo sapiens, UniProt P28062); test: β5 inhibition assay, human immunoproteasome (Suc-LLVY-AMC); format: biochemical; settings: IC50 class, Suc-LLVY-AMC substrate
T2 construct: purchased Boston Biochem E-370
Protocol: The enzymatic activity of the β5 subunit of the human constitutive proteasome (CPS) is analyzed. In another assay, which differs from the assay of the human constitutive proteasome only in using the human immunoproteasome (IPS) the enzymatic activity of the β5 subunit of the human immunoproteasome (IPS) is analyzed. Incubation of the enzyme with its fluorogenic substrate Suc-LLVY-AMC leads to liberation of the fluorescent dye AMC which can be measured with a suitable plate reader. • 100 mM HEPES pH7.5 • 50 mM NaCl • 0.02% SDS • 1 mM DTT (add fresh) • Victor X5 (Perkin Elmer) • Label: Umbeliferone (0.1s) • Excitation wavelength: 355 nm • Emission wavelength: 460 nm • 4 μl human cPS or IPS enzyme in assay buffer (final assay concentration 1 nM) or 4 μl assay buffer for negative controls • Compound addition via acoustic dispenser (Echo 520, Labcyte) • Mix and incubate @ RT for 10 min • 4 μl Suc-LLVY-AMC substrate (final assay concentration 22.6 μM) • Mix and incubate @ RT for 4 h (dark) • Stop reaction with 4 μl Bortezomib (final assay concentration 1 μM) • 15 min @ RT • Measure (Excitation 355 nm; Emission 460 nm)

| SMILES | IC50 |
| --- | --- |
| Cc1ccc2cc1CNC(=O)[C@H](CCc1ccccc1)NC(=O)[C@@H](NC(=O)CCNC(=O)C1CCC3(CCOCC3)CC1)CC(=O)N1CCCC(CCO2)C1 (stereo partly drawn) [Compound 576] | < 100 nM |
| Cc1ccc2cc1CNC(=O)[C@H](CCc1ccccc1)NC(=O)[C@@H](NC(=O)CCOCCCC1CCCC1)CC(=O)N1CCCC(CCO2)C1 (stereo partly drawn) [Compound 620, 3-(3-cyclopentylpropoxy)-N-((9S,12S)-5^4-methyl-8,11,14-trioxo-9-phenethyl-4-oxa-7,10-diaza-1(3,1)-piperidina-5(1,3)-benzenacyclotetradecaphane-12-yl)propanamide] | < 100 nM |
